US20060178357A1, “Chphalosporin-derived mercaptans as inhibitors of serine and metallo-beta-lactamases” (priority 2005, published 2006)

Experiments:
[1] = tested on: class B β-lactamases (L1 metallo-β-lactamase derived from Stenotrophomonas maltophilia; metallo-β-lactamase derived from Bacillus cereus); assay: β-lactamase inhibition (IC50, nitrocefin hydrolysis) against class B metallo-β-lactamases; format: biochemical; details: 4 min incubation of inhibitor and enzyme, substrate nitrocefin, 480 nm; statement in words summarising Table 1
Protocol: (§1) Representative compounds of the invention were evaluated as inhibitors of two serine β-lactamases: Enterobacter cloacae P99 (class C), TEM-1 (class A), as well as two class B enzymes: the L1 metallo-β-lactamse derived from Stenotrophomonas maltophilia) and the metallo-β-lactamase derived from the Bacillus cereus microorganism. The IC50 value of each compound was determined as follows. Assay method involves 4 min incubation of a solution of inhibitor and enzyme (0.1 to 1 μM in enzyme), followed by transfer of an aliquot into a dilute solution of the substrate nitrocefin. Hydrolysis is monitored spectrophotometrically at 480 nm for 1 min. The rate is constant throughout this period. Error is ±10%, based on multiple experiments.

[2] = biological target: Enterobacter cloacae P99 (class C) β-lactamase (Enterobacter cloacae, UniProt P05364); assay: β-lactamase inhibition (IC50, nitrocefin hydrolysis) against class C serine β-lactamase; format: biochemical; details: 4 min incubation of inhibitor and enzyme, substrate nitrocefin, 480 nm; comparison in words summarising Table 1
Protocol: as §1

Sequence of Enterobacter cloacae P99 (class C) β-lactamase (P05364 21-381): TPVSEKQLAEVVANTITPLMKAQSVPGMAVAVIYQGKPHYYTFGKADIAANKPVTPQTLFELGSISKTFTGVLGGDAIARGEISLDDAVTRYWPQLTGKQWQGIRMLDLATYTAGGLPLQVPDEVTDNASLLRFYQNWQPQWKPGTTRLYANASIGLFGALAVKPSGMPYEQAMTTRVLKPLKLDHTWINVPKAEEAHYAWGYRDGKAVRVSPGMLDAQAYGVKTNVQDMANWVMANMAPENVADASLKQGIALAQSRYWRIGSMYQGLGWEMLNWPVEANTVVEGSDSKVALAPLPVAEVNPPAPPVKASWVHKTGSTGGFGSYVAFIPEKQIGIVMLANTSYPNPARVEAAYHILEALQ

Row | SMILES | ability to inhibit the class B β-lactamases [1] | inhibition activity against a representative class C β-lactamase relative to tazobactam [2]
1 | CC(=O)OCC1=C(C(=O)[O-])N2C(=O)C(CS)C2SC1.[Na+] (stereo not drawn) [Compound 12, Sodium salt of 7β-(mercaptomethyl)cephalosporanate] | possess the ability to inhibit the class B β-lactamases | –
2 | CC(=O)OCC1=C(C(=O)[O-])N2C(=O)C(CS)C2S(=O)(=O)C1.[Na+] (stereo not drawn) [Compound 15, Sodium salt of 7β-(mercaptomethyl)cephalosporanate-1,1-dioxide] | possess the ability to inhibit the class B β-lactamases | –
3 | CC(=O)OCC1=C(C(=O)[O-])N2C(=O)C(CS)C2[S+]([O-])C1.[Na+] (stereo not drawn) [Compound 17, Sodium salt of 7β-(mercaptomethyl)cephalosporanate-1β-oxide] | possess the ability to inhibit the class B β-lactamases | –
4 | CC(=O)OCC1=C(C(=O)[O-])N2C(=O)C(CS)C2[S+]([O-])C1.[Na+] (stereo not drawn) [Compound 19, Sodium salt of 7α-(mercaptomethyl)cephalosporanate-1β-oxide] | possess the ability to inhibit the class B β-lactamases | –
5 | CC(=O)OCC1=C(C(=O)[O-])N2C(=O)C(CS)C2S(=O)(=O)C1.[Na+] (stereo not drawn) [Compound 22, Sodium salt of 7α-(mercaptomethyl)cephalosporanate-1,1-dioxide] | possess the ability to inhibit the class B β-lactamases | superior to tazobactam
6 | CC(=O)OCC1=C(C(=O)[O-])N2C(=O)C(CS)C2SC1.[Na+] (stereo not drawn) [Compound 26, Sodium salt of 7α-(mercaptomethyl)cephalosporanate] | possess the ability to inhibit the class B β-lactamases | superior to tazobactam
7 | CC(=O)OCC1=C(C(=O)[O-])N2C(=O)C(CS)C2[S+]([O-])C1.[Na+] (stereo not drawn) [Compound 29, Sodium salt of 7α-(mercaptomethyl)cephalosporanate-1α-oxide] | possess the ability to inhibit the class B β-lactamases | superior to tazobactam
8 | C[C@]1(Cn2ccnn2)[C@H](C(=O)O)N2C(=O)C[C@H]2S1(=O)=O [tazobactam, reference compound] | does not possess such ability | –
